Reference: the METLIN SMRT retention time set (Domingo-Almenara et al. 2019)

Test: gradient 5% acetonitrile 3 min, to 50% in 2 min, to 85% in 15 min, held 3 min, 100 µL/min
Conditions: column: Zorbax Extend-C18 2.1 x 50 mm; eluents: water / acetonitrile, 0.1% formic acid
Summary of the method: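 The mobile phases were water and acetonitrile, each with 0.1% formic acid, pumped at 100 μL/min through a Zorbax Extend-C18 column (2.1 × 50 mm, 1.8 μm). Pure standards were injected as mixtures of ~100 molecules and detected by a quadrupole time-of-flight mass spectrometer in positive and negative ionization mode. Retention time came from computationally picked adduct peaks, each inspected by hand.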

Compound | RP-LC retention time
Cc1cccc(Nc2nc(C(=O)NCCC3=CCCCC3)nc3ccccc23)c1 | 995 s
O=C(O)c1nnn(-c2cccc(Cl)c2)c1C(F)(F)F | 806 s
CCN1CCCn2cc(S(=O)(=O)Nc3cccc(C)c3)cc2C1=O | 724 s
CCN(CC)CCNCc1ccc(-c2ccccc2F)o1 | 562 s
O=C(Nc1cc(-c2ccsc2)no1)C1CC1 | 792 s
CC1CC(=O)N(CC(=O)Nc2cccc(Cl)c2)c2ccccc2S1(=O)=O (centres undefined) | 796 s
COc1cccc(CNC(=O)C2CCN(S(=O)(=O)c3ccc4c(c3)CCCC(=O)N4)CC2)c1 | 713 s
COc1ccc(NC(=O)c2cn(C)nc2S(=O)(=O)N2CCC(C)CC2)c(F)c1 | 997 s
CCOc1ccc2c(n1)CCN(C(=O)Nc1ccc(C)cc1C)C2 | 852 s
O=C(Nc1sc2c(c1CN1CCN(c3ccccn3)CC1)CCCC2)c1ccco1 | 671 s
Cn1cnc2cc(CNC(=O)c3ccc(F)cc3)ccc21 | 577 s
CN1C(=O)CCc2cc(NC(=O)c3n[nH]c4ccccc34)ccc21 | 730 s
Cc1cc(N2CCOCC2)n2nc(-c3ccc(C(C)(C)C)cc3)nc2n1 | 960 s
CCc1ccc(NC(=O)C2CCCN2S(=O)(=O)c2ccc3c(c2)CCCC(=O)N3)cc1 (centres undefined) | 835 s
Cc1ccc(CNC(=O)CCc2c(C)nn(-c3cc(N4CCCCC4)ncn3)c2C)o1 | 882 s
CCCN1CCN(c2ncnc3sc(C(=O)NCCCN4CCCC4)c(C)c23)CC1 | 583 s
COc1ccccc1NC(=O)N1CCCC1c1nc(-c2ccc(F)cc2F)no1 (centres undefined) | 1000 s
O=C(C1CC(=O)N(c2ccc(F)cc2)C1)N1CC(c2nc(-c3ccccn3)no2)C1 (centres undefined) | 650 s
Cc1cc(C)c2c(N3CCSCC3)nc(C(=O)NCC(C)C)nc2n1 | 658 s
COC(=O)c1sc(-c2ccccc2)cc1NC(=O)c1ccc([N+](=O)[O-])s1 | 1370 s
CSc1cccc(NC(=O)c2cn(C)nc2S(=O)(=O)N2CCC(C)CC2)c1 | 1120 s
CCSc1nnc(NC(=O)CNC(=O)c2c[nH]c3ccccc23)s1 | 669 s
CC1=C(c2ccccc2)S(=O)(=O)N=C1N1CCCN(C(=O)C(C)c2ccccc2)CC1 (centres undefined) | 873 s

Compound | RP-LC retention time
CCCNC(=O)C1CCN(c2ccc(SCC(=O)Nc3ccc(C(=O)OCC)cc3)nn2)CC1 | 677 s
O=C(c1ccoc1)N1CCN(c2cc(-c3ccc(Cl)cc3)[nH]n2)CC1 | 774 s
CCOc1ccccc1N1CCN(S(=O)(=O)c2nn(C)cc2C(=O)NCC2CC2)CC1 | 973 s
OC[C@@H]1CNC[C@H]1C1CCN(Cc2ccc(OC(F)(F)F)cc2)CC1 | 591 s
Cc1cccc(OCc2nc(-c3ccc4ncn(C(C)C)c4c3)no2)c1 | 839 s
O=C(Nc1ccc(Br)cc1)C1CCCN(c2ccnc(-c3ccc(F)cc3)n2)C1 (centres undefined) | 775 s
CCN1C(=O)c2ccccc2Oc2ccc(C(=O)NCc3cccc(OC)c3)cc21 | 921 s
CCNC(=O)C1CCN(S(=O)(=O)c2cc(C(=O)N3CCCCCC3)cs2)CC1 | 717 s
O=C(CN1CCC2(CC1)N=C(c1ccc(Cl)cc1)C(=O)N2)NCc1ccc2c(c1)OCO2 | 680 s
O=C(NCCc1ccccn1)C1CCCN(c2nnc3ccc(C(F)(F)F)cn23)C1 (centres undefined) | 583 s
COc1cccc(N2CCN(Cc3nc(-c4ccc(N5CCCCC5)nc4)no3)CC2)c1 | 930 s
COCCNC(=O)C1CCN(c2nc3ccc(-c4cccnc4)nc3s2)CC1 | 578 s
COc1ccc(-c2nnc(Cc3nc(-c4ccc(Cl)cc4)no3)o2)cc1OC | 990 s
Cn1cc(-c2cc3n(n2)CCC(=O)N3CC(=O)N2CCC(N3CCCCC3)CC2)c2ccccc21 | 623 s
COc1ccc2[nH]cc(CCNC(=O)c3ccc(F)cc3)c2c1 | 778 s
Cc1nc(-c2ccc(N3CCN(C(=O)c4cc(F)ccc4F)CC3)nc2)sc1C | 890 s
O=C(c1cccc(Br)c1)N1CCN(c2cc(-c3ccc(F)cc3)[nH]n2)CC1 | 864 s
COc1ccc(-c2nc(Cc3noc(-c4ccccc4)n3)c(C)o2)cc1 | 1100 s
COc1ccc(-c2[nH]ncc2CN2CCC3(CC2)CC(C)(O)CCO3)cc1 (centres undefined) | 588 s
Cc1cccc(-c2noc(-c3cccnc3N3CCN(c4ccc5c(c4)OCO5)CC3)n2)c1 | 766 s
O=C(C1CC1)N1CCc2sc(S(=O)(=O)Nc3ccccc3Br)cc2C1 | 858 s
O=C(Nc1cccc(-c2cn3cccnc3n2)c1)c1cccc([N+](=O)[O-])c1 | 687 s
CCN(CC)c1ccc(NC(=O)CSc2ccc(N3CCCC(C(=O)NC4CC4)C3)nn2)c(C)c1 (centres undefined) | 529 s

Compound | RP-LC retention time
Cc1cccc(-c2noc(-c3nn(CC(=O)NCc4cccs4)c4ccccc34)n2)c1 | 1140 s
O=C(Cn1ncc2c(c1=O)N(C1CC1)C(=O)CS2)NC1CCCC1 | 615 s
COc1ccc(-c2cn3c(CC(=O)Nc4ccccc4)csc3n2)cc1 | 760 s
O=C1CC(C(=O)N2CCc3ccccc32)CN1CCc1c[nH]c2ccc(Cl)cc12 (centres undefined) | 880 s
O=C1CC(c2nc(-c3ccccc3)no2)CN1c1ccc2c(c1)OCCO2 (centres undefined) | 933 s
O=C(CC1CCCCC1)N1CCN(c2ccc(=O)n(-c3ccccc3)n2)CC1 | 857 s
O=C(c1cnc2sc3c(n2c1=O)CCC3)N1CCN(c2ncccn2)CC1 | 658 s
Cn1c(=O)c(NCCCN2CCCc3ccccc32)nc2ccncc21 | 665 s
COCC(C)(O)CNC(=O)c1ccsc1 (centres undefined) | 581 s
COc1ccc(N2C(=O)CC(c3ccc(OC)c(OC)c3)CC2=O)cc1Cl | 845 s
CCOc1ccc(-c2cc(=O)n(CCCC(=O)Nc3cccc(SC)c3)cn2)cc1 | 847 s
O=C(NCCN1CCOCC1)c1nc(Nc2ccc(F)cc2)c2ccccc2n1 | 592 s
Cc1nn(C(C)C(=O)NCCCN2CCOCC2)c(=O)c2c(C)n(-c3ccccc3)nc12 (centres undefined) | 615 s
CCc1nn2c(CNC(=O)c3cc(C)cc(C)c3)c(-c3ccccc3)nc2s1 | 1030 s
O=C(c1ccc(Cl)cc1)N1CCc2nc[nH]c2C1 | 568 s
COc1ccc(N2CC(c3nc(-c4ccc(OC)c(OC)c4)no3)CC2=O)cc1Cl (centres undefined) | 884 s
Cc1ccc(C2Cn3nnc(C(=O)N4CCN(C(=O)c5ccoc5)CC4)c3CO2)cc1 (centres undefined) | 815 s
CCCCNC(=O)Cn1c(=O)c2cnc(-c3ccccc3)nc2n(CC)c1=O | 937 s
O=C(Nc1nc2c(s1)CN(Cc1ccccc1)CC2)c1cccc(N2C(=O)CCC2=O)c1 | 548 s
O=S(=O)(c1ccc(F)cc1)N1CCc2nc(-c3ccc(Cl)cc3)ncc2C1 | 1170 s
CCCNC(=O)C1CCCN1C(=O)c1ccc(NC(=O)C(C)(C)C)cc1 (centres undefined) | 683 s
CC(C)c1c(C(=O)O)nnn1Cc1ccccc1 | 720 s
O=C(c1cccc(N2CCNC(c3ccccc3)C2)n1)N1CCCN(c2ncccn2)CC1 (centres undefined) | 609 s

Compound | RP-LC retention time
O=C(c1ccco1)N1CCCC1c1nc(-c2ccccc2)no1 (centres undefined) | 853 s
Cc1ccc(C)c(N2C(=O)CN(S(C)(=O)=O)CC2(C)C(=O)NCc2ccc(Cl)cc2)c1 (centres undefined) | 889 s
Cc1ccc2oc(-c3noc(C(=O)NCc4ccc5c(c4)OCO5)n3)c(C)c2c1 | 1120 s
CCOC(=O)c1[nH]c(C)c(CCC(=O)N2CCC(C(=O)NC3CCCCC3)CC2)c1C | 778 s
CCOc1ccccc1NC(=O)N1CCN(CCn2c(C(C)C)nc3cccnc32)CC1 | 617 s
Cc1nc(N2CCN(C(=O)Nc3cccc(C(F)(F)F)c3)CC2)cc(-n2cccn2)n1 | 947 s
COc1cccc(NC(=O)N2CCC[C@@H]2C(=O)NCc2csc(-c3cccs3)n2)c1 | 773 s
Cc1nnc(-c2coc(S(=O)(=O)N3CCCCCC3)c2)o1 | 824 s
O=C(Cn1cccc1-c1nnc(C2CCC2)o1)N1CCc2ccccc21 | 946 s
Cc1cccc(NC(=O)Cn2c(C)nc(C)c(C)c2=O)c1 | 658 s
Cc1ccc(NC(=O)Cn2nc(N3CCSCC3)c3ccccc3c2=O)cc1F | 976 s
CCOc1ccc(OCC)c(NC(=O)C(C)Oc2ccc(=O)n(-c3ccc(F)cc3)n2)c1 (centres undefined) | 953 s
NC(=O)Cn1cnc2c(-c3ccc(F)cc3)nsc2c1=O | 713 s
CC1CC(C)OP(=O)(OCCC#N)O1 (centres undefined) | 650 s
O=C(Nc1ccc2c(c1)OCCO2)C1CCN(C(=O)c2cccc(F)c2)CC1 | 697 s
N#Cc1cccc(NC(=O)C2CCN(S(=O)(=O)c3cc(C(=O)N4CCCC4)cs3)CC2)c1 | 995 s
CCCCNC(=O)Cc1c(C)nn(-c2nc(-c3ccc(Cl)cc3)cs2)c1C | 1180 s
O=C(NCC1(N2CCOCC2)CCOC1)Nc1ccccc1 (centres undefined) | 572 s
Cc1ccc(Cl)cc1NS(=O)(=O)c1ccc(-c2c(C)noc2C)cc1 | 1010 s
Cc1ccc(NC(=O)CC2SC3=NCCN3C2=O)cc1 (centres undefined) | 578 s
